Data on 58 compounds can be found in US7943608B2, “Diazepinoes” (Merck Patent GmbH, priority 2005, dated 2011).

The target in the first test is T1, His6-PDK1(Δ1-50) (Homo sapiens, UniProt O15530).
T1 construct: His6 (N)
T1 sequence (O15530 51-556): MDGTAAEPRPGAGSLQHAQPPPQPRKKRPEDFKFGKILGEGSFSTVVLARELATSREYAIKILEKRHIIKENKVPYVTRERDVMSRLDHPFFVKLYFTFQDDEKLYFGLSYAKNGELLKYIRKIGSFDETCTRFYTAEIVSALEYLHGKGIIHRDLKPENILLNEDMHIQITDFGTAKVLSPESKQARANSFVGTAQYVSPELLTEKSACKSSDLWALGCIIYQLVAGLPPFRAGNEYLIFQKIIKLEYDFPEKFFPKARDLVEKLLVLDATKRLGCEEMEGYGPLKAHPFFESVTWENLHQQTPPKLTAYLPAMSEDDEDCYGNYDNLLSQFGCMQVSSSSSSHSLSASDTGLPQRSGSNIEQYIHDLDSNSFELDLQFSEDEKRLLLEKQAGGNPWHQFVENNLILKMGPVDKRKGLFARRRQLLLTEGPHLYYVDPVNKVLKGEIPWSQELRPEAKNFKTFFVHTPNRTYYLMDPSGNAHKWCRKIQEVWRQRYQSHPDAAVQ
Put plainly: Inhibition of PDK1 (IC50), 384-well flashplate kinase assay. Type of test: biochemical. As to conditions: 4 μM ATP, 400 nM PDKtide, first part of Table 1 (compounds 1-31). The method, then:
Inhibition of PDK1 (IC50)
The kinase assay can be carried out as a 384-well flashplate assay. 3.4 nM His6-PDK1(Δ1-50), 400 nM PDKtide (biotin-bA-bA-[…]) and 4 μM ATP (with 0.2 μCi of 33P-ATP/well) are incubated at […] for 60 min in a total volume of 50 μl (50 mM TRIS, 10 mM Mg acetate, 0.1% of mercaptoethanol, 0.02% of Brij35, 0.1% of BSA, pH 7.5) with or without test substance (5-10 concentrations). The reaction is stopped using 25 μl of 200 mM EDTA solution, filtered with suction after 30 min at room temperature, and the wells are washed with 3 times 100 μl of 0.9% NaCl solution. The nonspecific content of the kinase reaction (blank) is determined using 100 nM staurosporine. Radioactivity is measured using a Topcount scintillation counter (PerkinElmer, USA). IC50 values are calculated using the RS1 computer program.
`Cc1ccc2c(c1)NC(=O)c1cnc(N(C)C3CCN(C)CC3)nc1N2` [Compound 6, 8-Methyl-3-[methyl(1-methylpiperidin-4-yl)amino]-5,10-dihydro-2,4,5,10-tetraazadibenzo[a,d]cyclohepten-11-one]: it took 1100 nM to reach half-maximal inhibition (IC50). In other words, the single-digit micromolar range. In the case of `CCOc1ccc2c(c1)NC(=O)c1cnc(N(C)C3CCN(C)CC3)nc1N2` [Compound 15], the IC50 stood at 900 nM. Compound `CN1CCC(Nc2ncc3c(n2)Nc2ccc(C(C)(C)C)cc2NC3=O)CC1` [Compound 18] showed an IC50 of 700 nM. This IC50 and that of the compound before are within 1.5-fold of each other. The same measure, in the same setting: the same measure for `CN1CCC(N(C)c2ncc3c(n2)Nc2ccc(C(F)(F)F)cc2NC3=O)CC1` [Compound 17]: 1600 nM; for `CCOc1ccc2c(c1)NC(=O)c1cnc(NC3CCN(C)CC3)nc1N2` [Compound 21]: 1000 nM; for `Cc1ccc2c(c1)NC(=O)c1cnc(NC3CCN(C)CC3)nc1N2` [Compound 19]: 600 nM. The compound `COc1ccc2c(c1)NC(=O)c1cnc(NC3CCN(C)CC3)nc1N2` [Compound 7, 8-Methoxy-3-(1-methylpiperidin-4-ylamino)-5,10-dihydro-2,4,5,10-tetraazadibenzo[a,d]cyclohepten-11-one] yielded an IC50 of 3100 nM. Compound `CN1CCC(N(C)c2ncc3c(n2)Nc2cc(Cl)ccc2NC3=O)CC1` [Compound 10] yielded an IC50 of 1700 nM. This IC50 lies about 1.8-fold lower than the previous one. Turning to `Cc1ccc2c(c1C)Nc1nc(N(C)C3CCN(C)CC3)ncc1C(=O)N2` [Compound 22], the IC50 is 2600 nM. The compound `Cc1cc2c(cc1C)Nc1nc(N(C)C3CCN(C)CC3)ncc1C(=O)N2` [Compound 3, 7,8-Dimethyl-3-[methyl(1-methylpiperidin-4-yl)amino]-5,10-dihydro-2,4,5,10-tetraazadibenzo[a,d]cyclohepten-11-one] displayed a half-maximal inhibitory concentration (IC50) of 1000 nM. With `CN1CCC(N(C)c2ncc3c(n2)Nc2ccccc2NC3=O)CC1` [Compound 1], the half-inhibitory concentration (IC50) came to 2300 nM. Same read-out and setting: under `Cc1ccc2c(c1)NC(=O)c1cnc(N(C(C)C)C3CCN(C)CC3)nc1N2` [Compound 26] stands 6200 nM; under `COc1ccc2c(c1)NC(=O)c1cnc(N(C)C3CCN(C)CC3)nc1N2` [Compound 5, S-Methoxy-3-[methyl(1-methylpiperidin-4-yl)amino]-5,10-dihydro-2,4,5,10-tetraazadibenzo[a,d]cyclohepten-11-one], 800 nM; under `Cc1ccc2c(c1)Nc1nc(N(C)C3CCN(C)CC3)ncc1C(=O)N2` [Compound 2, 7-Methyl-3-[methyl(1-methylpiperidin-4-yl)amino]-5,10-dihydro-2,4,5,10-tetraazadibenzo[a,d]cyclohepten-11-one], 2400 nM. `CN1CCC(Nc2ncc3c(n2)Nc2cc(C(F)(F)F)ccc2NC3=O)CC1` [Compound 11]: half-maximal inhibition (IC50) was put at 3900 nM. Against the preceding compound, the IC50 is about 1.6-fold higher. Still for that read-out and setting: under `CCN(c1ncc2c(n1)Nc1ccc(C)cc1NC2=O)C1CCN(C)CC1` [Compound 20] stands 2800 nM.

Staying with this test, now noted: 4 μM ATP, 400 nM PDKtide, second part of Table 1 (compounds 32-124).
As for `CC(C)NC(=O)Nc1ccc2c(c1)Nc1nc(N(C)C3CCN(C)CC3)ncc1C(=O)N2` [Compound 75], the IC50 was determined as 960 nM. For `CN1CCC(N(C)c2ncc3c(n2)Nc2c(NC(=O)NC(C)(C)C)cccc2NC3=O)CC1` [Compound 84], the 50% inhibitory concentration (IC50) turned out to be 5500 nM. In the case of `CC(C)c1ccc2c(c1)NC(=O)c1cnc(NC3CCN(C(C)C)CC3)nc1N2` [Compound 50], 1200 nM corresponded to half-maximal inhibition (IC50). `CCN(c1ncc2c(n1)Nc1ccc(F)cc1NC2=O)C1CCN(C)CC1` [Compound 59] displayed a 50% inhibitory concentration (IC50) of 2400 nM. The same measure, in the same setting: under `Cc1cccc2c1Nc1nc(NC3CCN(C)CC3)ncc1C(=O)N2` [Compound 46] stands 2400 nM. The same measure, in the same setting: the same measure for `CN1CCC(N(C)c2ncc3c(n2)Nc2ccc(C#N)cc2NC3=O)CC1` [Compound 38]: 600 nM.

As for `CN1CCC(N(C)c2ncc3c(n2)Nc2ccc(NC(=O)NC4CCCC4)cc2NC3=O)CC1` [Compound 78], 150 nM corresponded to half-maximal inhibition (IC50). Against the preceding compound, the IC50 is about 4-fold lower.

`CN1CCC(N(C)c2ncc3c(n2)Nc2ccc(NC(=O)NC(C)(C)C)cc2NC3=O)CC1` [Compound 83] had a 50% inhibitory concentration (IC50) of 200 nM. Regarding `CCN(c1ncc2c(n1)Nc1ccc(C(C)C)cc1NC2=O)C1CCN(C)CC1` [Compound 48], it took 3000 nM to reach half-maximal inhibition (IC50). Compared with the last compound, the IC50 is about 15-fold higher. `CN1CCC(N(C)c2ncc3c(n2)Nc2cc(N)ccc2NC3=O)CC1` [Compound 68] returned an IC50 of 510 nM. Against the preceding compound, the IC50 is about 5.9-fold lower. In turn, `CN1CCC(N(C)c2ncc3c(n2)Nc2ccc(NC(=O)Nc4cccs4)cc2NC3=O)CC1` [Compound 89] came in with a half-maximal inhibitory concentration (IC50) of 200 nM.

In turn, `CN1CCC(Nc2ncc3c(n2)Nc2ccc(N(C)C)cc2NC3=O)CC1` [Compound 37] registered a half-maximal inhibitory concentration (IC50) of 190 nM. `CCC(C)NC(=O)Nc1cccc2c1Nc1nc(N(C)C3CCN(C)CC3)ncc1C(=O)N2` (stereo not shown) [Compound 92] came in with a half-inhibitory concentration (IC50) of 7800 nM. `CN1CCC(N(C)c2ncc3c(n2)Nc2c(NC(=O)NC4CCCCC4)cccc2NC3=O)CC1` [Compound 93] returned an IC50 of 3500 nM. Consider `CCN1CCC(Nc2ncc3c(n2)Nc2cc(C)c(C)cc2NC3=O)CC1` [Compound 47], for which half-maximal inhibition (IC50) required 1500 nM. For the compound `CN(c1ncc2c(n1)Nc1ccc(C(C)(C)C)cc1NC2=O)C1CCNCC1` [Compound 71], it took 430 nM to reach half-maximal inhibition (IC50). As for `CCOc1ccc2c(c1)NC(=O)c1cnc(N(C)C3CCN(C)CC3)nc1N2` [Compound 64], the midpoint of inhibition, the IC50, lay at 430 nM.

As for `CC(C)N1CCC(Nc2ncc3c(n2)Nc2ccc(C#N)cc2NC3=O)CC1` [Compound 58], the concentration for half-maximal inhibition (IC50) came to 7100 nM. `CCN1CCC(Nc2ncc3c(n2)Nc2c(ccc(C)c2C)NC3=O)CC1` [Compound 41] came in with an IC50 of 6300 nM.

As to `Cc1noc(C)c1NC(=O)Nc1ccc2c(c1)NC(=O)c1cnc(N(C)C3CCN(C)CC3)nc1N2` [Compound 100], the half-inhibitory concentration (IC50) was 220 nM. Still for that read-out and setting: under `CCN1CCC(Nc2ncc3c(n2)Nc2ccc(C(F)(F)F)cc2NC3=O)CC1` [Compound 60] stands 2900 nM; under `CCOc1ccc2c(c1)NC(=O)c1cnc(NC3CCN(C)CC3)nc1N2` [Compound 65], 520 nM.

Turning to `CCOc1ccc2c(c1)NC(=O)c1cnc(NC3CCN(C(C)C)CC3)nc1N2` [Compound 49], the IC50 stood at 5100 nM. Regarding `CN1CCC(Nc2ncc3c(n2)Nc2ccc(C#N)cc2NC3=O)CC1` [Compound 56], the IC50 stood at 1500 nM. On to `CC(C)NC(=O)Nc1cccc2c1Nc1nc(N(C)C3CCN(C)CC3)ncc1C(=O)N2` [Compound 79], for which half-maximal inhibition (IC50) required 6000 nM. `CN1CCC(N(C)c2ncc3c(n2)Nc2ccc(NC(=O)Nc4ccsc4)cc2NC3=O)CC1` [Compound 99]: the IC50 was 120 nM. The same measure, in the same setting: the same measure for `CN1CCC(Nc2ncc3c(n2)Nc2ccc(C(F)(F)F)cc2NC3=O)CC1` [Compound 62]: 1800 nM; for `CC(C)Cn1cc(-c2ccc3c(c2)NC(=O)c2cnc(N(C)C4CCN(C)CC4)nc2N3)cn1` [Compound 70]: 110 nM; for `Cc1cc(C)c2c(c1)NC(=O)c1cnc(N(C)C3CCN(C)CC3)nc1N2` [Compound 33]: 1300 nM. Compound `CCN1CCC(Nc2ncc3c(n2)Nc2ccc(C#N)cc2NC3=O)CC1` [Compound 55] returned an IC50 of 2300 nM.

With `CCNC(=O)Nc1ccc2c(c1)Nc1nc(N(C)C3CCN(C)CC3)ncc1C(=O)N2` [Compound 76], the IC50 was 1300 nM. Regarding `CCC(C)NC(=O)Nc1ccc2c(c1)NC(=O)c1cnc(N(C)C3CCN(C)CC3)nc1N2` (stereo not shown) [Compound 87], the IC50 is 230 nM. Compared with the last compound, the IC50 is about 5.7-fold lower.

Take `Cc1ccc2c(c1C)Nc1nc(NC3CCN(C)CC3)ncc1C(=O)N2` [Compound 66]: the half-maximal inhibitory concentration (IC50) worked out at 3400 nM. On the same count and under the same terms, under `CCN1CCC(Nc2ncc3c(n2)Nc2ccc(C(C)(C)C)cc2NC3=O)CC1` [Compound 40] stands 1400 nM; under `Cc1noc(C)c1NC(=O)Nc1ccc2c(c1)Nc1nc(N(C)C3CCN(C)CC3)ncc1C(=O)N2` [Compound 95], 950 nM; under `CN1CCC(N(C)c2ncc3c(n2)Nc2c(NC(=O)Nc4ccsc4)cccc2NC3=O)CC1` [Compound 101], 340 nM. With `Cc1cc2c(cc1C)Nc1nc(NC3CCN(C(C)C)CC3)ncc1C(=O)N2` [Compound 57], the IC50 turned out to be 2000 nM. The same measure, in the same setting: the same measure for `CN1CCC(N(C)c2ncc3c(n2)Nc2ccc(N)cc2NC3=O)CC1` [Compound 80]: 190 nM; for `CCCNC(=O)Nc1ccc2c(c1)NC(=O)c1cnc(N(C)C3CCN(C)CC3)nc1N2` [Compound 86]: 280 nM.

In turn, `CCOc1ccc2c(c1)NC(=O)c1cnc(NC3CCN(CC)CC3)nc1N2` [Compound 43] displayed an IC50 of 2000 nM. Consider `CCN1CCC(Nc2ncc3c(n2)Nc2c(C)cccc2NC3=O)CC1` [Compound 54], for which inhibition was half-maximal at 7100 nM (IC50). Consider `CCNC(=O)Nc1ccc2c(c1)NC(=O)c1cnc(N(C)C3CCN(C)CC3)nc1N2` [Compound 85], for which half-maximal inhibition (IC50) was put at 280 nM.

The term IC50 denotes the concentration that gives 50% inhibition. A low value points to higher potency.
